Broadly, the IC50 is the concentration needed to halve the response being measured. Read a high IC50 as weaker potency in that assay.

Series [1] is described as follows: Lipophilicity by RP-UHPLC capacity factors (logkw, Φ0). The class given is physicochemical. Particulars: for Intercept logkw: RP-UHPLC, MeOH/0.1% formic acid in water, 25 °C, logk extrapolated to 100% water; for Φ0: percentage of methanol in the eluent at which logk is zero, Φ0 = −logkw/S; for Slope S: slope of logk against % organic eluent (MeOH). An excerpt: It stands to reason that the higher the lipophilicity, the higher the cell accumulation; as far as passive diffusion is concerned, the higher efficiency with which normal cell function is compromised. As a consequence, lipophilicity is an important factor in drug development, described by the partition coefficient logP, which is routinely determined by the distribution of a compound in 1-octanol/water. However, 1-octanol, a solvent said to closely mimic the solubilizing behavior of cell membranes, forms emulsions with water. Additionally, the shake-flask method, seemingly easy, requires long sample preparation, has a low sample throughput, and lacks reproducibility, as it hinges on exact temperature control and consistent equilibration time allotted for every analyte. The time-consuming nature of this method may also lead to decomposition of the analyte. A concentration-, flow rate-, and column length-independent method is the determination of the capacity factor (k) via HPLC. The capacity factor is a measure for the equilibrium concentration between a polar phase (eluent) and an apolar phase (C18 column coating) and higher resemblance to the partition coefficient in […]. […] The percentage of methanol in the eluent at which logk is equal to zero is Φ0 [27, 28, 29].
The capacity factors k were determined with the use of an RP-UHPLC. The necessary chromatograms were recorded with a Dionex UltiMate 3000 RS UHPLC system (Thermo Fisher Scientific, Bedford, MA, USA) controlled by the Dionex Chromeleon 7.2 software. […] The capacity factors were then calculated as logk = log[(tR − t0)/t0], where tR and t0 are the retention times of the analyte and the dead time marker, respectively, at the respective MeOH:0.1% FA in water ratio. Every retention time was determined in isocratic mode for the different eluent ratios to obtain capacity factors in the linear range (−0.5 ≤ logk ≤ 1.5) in triplicate. A plot of logk against the % of the organic eluent yielded logkw (intercept) and S (slope). Φ0, the factor most closely resembling logP, was then determined as follows: Φ0 = −logkw/S [28].

Series [2] concerns HCT116 (colon cancer) cells. The series can be described thus: MTT antiproliferative assay, HCT116. Type of series: cell-based, human. To be noted: exposure time 96 h, means ± standard deviations. Here is the method: (§1) CH1/PA-1 (ovarian teratocarcinoma) cells were a generous gift from Lloyd R. Kelland (CRC Centre for Cancer Therapeutics, Institute of Cancer Research, Sutton, UK). A549 (non-small cell lung cancer), SW480, and HCT116 (both colon cancer) cells were kindly provided by the Institute of Cancer Research, Department of Medicine I, Medical University of Vienna, Austria. All cell lines were grown as monolayer cultures in Eagle’s MEM supplemented with L-glutamine (4 mM), sodium pyruvate (1 mM) and 1% (v/v) non-essential amino acid solution (all from Sigma-Aldrich) and 10% (v/v) heat-inactivated fetal calf serum (FCS, BioWest) in 75-cm^2 flasks (Starlab) at 37 °C under a humidified atmosphere containing 5% CO2 in air. […] After 24 h, test compounds were dissolved in DMSO (Fisher Scientific), serially diluted in complete MEM not to exceed a final DMSO content of 0.5% (v/v) and added in 100 μL per well. After 96 h, the drug-containing medium was replaced with 100 µL of RPMI 1640/MTT mixture, i. e., 6 parts of RPMI 1640 medium (Sigma-Aldrich; supplemented with 10% heat-inactivated fetal bovine serum and 4 mM L-glutamine), 1 part of MTT solution in phosphate-buffered saline (5 mg/mL; both from Sigma-Aldrich). After incubation for 4 h, the MTT-containing medium was replaced with 150 μL DMSO per well to dissolve the formazan product formed by viable cells. Optical densities at 550 nm (and at the reference wavelength of 690 nm) were measured with a microplate reader (ELx808, Bio-Tek). The IC50 values relative to untreated controls were interpolated from concentration–effect curves. At least three independent experiments were performed, each with triplicates per concentration level.
In general terms: Formazan colour is commonly taken as a measure of viable cells.

Series [3] has as its system A549 (non-small cell lung cancer) cells. As to the kind of experiment: MTT antiproliferative assay, A549. Particulars: exposure time 96 h, means ± standard deviations. Type of series: cell-based, human. Here is the method: as §1
Series [4] deals with CH1/PA-1 (ovarian teratocarcinoma) cells. As to the kind of experiment: MTT antiproliferative assay, CH1/PA-1. The class given is cell-based, human. Particulars: exposure time 96 h, means ± standard deviations. Here is the method: CH1/PA-1 (ovarian teratocarcinoma) cells were a generous gift from Lloyd R. Kelland (CRC Centre for Cancer Therapeutics, Institute of Cancer Research, Sutton, UK). A549 (non-small cell lung cancer), SW480, and HCT116 (both colon cancer) cells were kindly provided by the Institute of Cancer Research, Department of Medicine I, Medical University of Vienna, Austria. All cell lines were grown as monolayer cultures in Eagle’s MEM supplemented with L-glutamine (4 mM), sodium pyruvate (1 mM) and 1% (v/v) non-essential amino acid solution (all from Sigma-Aldrich) and 10% (v/v) heat-inactivated fetal calf serum (FCS, BioWest) in 75-cm^2 flasks (Starlab) at 37 °C under a humidified atmosphere containing 5% CO2 in air.
Antiproliferative activity of the compounds was determined with the colorimetric MTT assay (MTT = 3-(4,5-dimethyl-2-thiazolyl)-2,5-diphenyl-2H-tetrazolium bromide). CH1/PA-1, HCT116, SW480, and A549 cells with cell numbers of 1 × 10^3, 1.5 × 10^3, 2 × 10^3, and 3 × 10^3, respectively, were seeded in 100 μL per well into 96-well microculture plates (Starlab). After 24 h, test compounds were dissolved in DMSO (Fisher Scientific), serially diluted in complete MEM not to exceed a final DMSO content of 0.5% (v/v) and added in 100 μL per well. After 96 h, the drug-containing medium was replaced with 100 µL of RPMI 1640/MTT mixture, i. e., 6 parts of RPMI 1640 medium (Sigma-Aldrich; supplemented with 10% heat-inactivated fetal bovine serum and 4 mM L-glutamine), 1 part of MTT solution in phosphate-buffered saline (5 mg/mL; both from Sigma-Aldrich). After incubation for 4 h, the MTT-containing medium was replaced with 150 μL DMSO per well to dissolve the formazan product formed by viable cells. Optical densities at 550 nm (and at the reference wavelength of 690 nm) were measured with a microplate reader (ELx808, Bio-Tek). The IC50 values relative to untreated controls were interpolated from concentration–effect curves. At least three independent experiments were performed, each with triplicates per concentration level.

As for `Cc1ccc(C(C)C)cc1.O=C1C2=C(NCc3ccccc3)[O][Ru-]([Cl])[O+]=C2c2ccccc21` [1a], the Intercept logkw in series [1] is listed as 5.41. In series [1], the Φ0 came to 63.19. The “Slope S” value in series [1] was −0.0855. Moreover, the half-inhibitory concentration (IC50) worked out at 24.8 ± 6.4 µM in series [2], 23.4 ± 2.5 µM in series [3] and 12.5 ± 4.4 µM in series [4].

For the compound `Cc1ccc(C(C)C)cc1.Cn1ccnc1.F[P-](F)(F)(F)(F)F.O=C1C(=C(NCc2ccccc2)[O][Ru+])C(=O)c2ccccc21` [1b], in series [1], the Intercept logkw is given as 5.49, the Φ0 stood at 61.84 and the “Slope S” value is −0.0888. In series [2], this compound had a half-inhibitory concentration (IC50) of 24.6 ± 8.5 µM. In series [3], this compound had an IC50 of 21.4 ± 1.7 µM. Besides, the IC50 in series [4] is 16.2 ± 2.6 µM.

As to `Cc1ccc(C(C)C)cc1.F[P-](F)(F)(F)(F)F.O=C1C2=C(NCc3ccccc3)[O][Ru-]([n+]3ccc[nH]3)[O+]=C2c2ccccc21` [1c], in series [1], the Intercept logkw is recorded as 5.36, the Φ0 is listed as 63.72 and the “Slope S” value was −0.0841. In series [2], it took 22.4 ± 6 µM to reach half-maximal inhibition (IC50). For the same compound, the midpoint of inhibition in series [3], the IC50, lay at 22.9 ± 3.5 µM. The IC50 in series [4] was 11.5 ± 2 µM.

Take `Cc1ccc(C(C)C)cc1.F[P-](F)(F)(F)(F)F.O=C1C2=C(NCc3ccccc3)[O][Ru-]([n+]3c[nH]c4ccccc43)[O+]=C2c2ccccc21` [1d]: in series [1], the Intercept logkw is reported as 5.55, the Φ0 is 65.87 and the “Slope S” value is reported as −0.0843. Further, the IC50 in series [2] came to 18.8 ± 5.8 µM. The IC50 in series [3] came out at 19 ± 0.8 µM. This compound also had a half-inhibitory concentration (IC50) in series [4] of 10.6 ± 1.8 µM.

In the case of `Cc1ccc(C(C)C)cc1.F[P-](F)(F)(F)(F)F.O=C1C2=C(NCc3ccccc3)[O][Ru-]([n+]3cc4ccccc4[nH]3)[O+]=C2c2ccccc21` [1e], in series [1], the Intercept logkw was 5.94, the Φ0 was 68.88 and the “Slope S” value was −0.0863. Half-maximal inhibition in series [2] (IC50) was put at 25.1 ± 7.1 µM. Further, the concentration for half-maximal inhibition (IC50) in series [3] came out at 23.7 ± 6.4 µM. The same compound yielded a half-inhibitory concentration (IC50) in series [4] of 11 ± 3 µM.

In the case of `Cc1ccc(C(C)C)cc1.F[P-](F)(F)(F)(F)F.O=C1C2=C(NCc3ccccc3)[O][Ru-]([NH+]3CCOCC3)[O+]=C2c2ccccc21` [1g], in series [1], the Intercept logkw is recorded as 5.14, the Φ0 worked out at 59.73 and the “Slope S” value is recorded as “–0.0860”. Further, the IC50 in series [2] was found to be 23.8 ± 7.6 µM. The same compound gave a half-maximal inhibitory concentration (IC50) in series [3] of 18.9 ± 1.4 µM. The same compound registered an IC50 in series [4] of 12.2 ± 2.7 µM.
